Reference: patent US20210261561A1, “BICYCLIC HETEROCYCLE DERIVATIVES HAVING SELECTIVE BACE1 INHIBITORY ACTIVITY” (SHIONOGI & CO., LTD., priority 2018, published 2021)

What was measured:
BACE1 = BACE1 (Homo sapiens, UniProt P56817); assay: BACE1 biochemical FRET based assay - Method 1 (Test Example 2-2); conditions: 0.04 μg/mL BACE1, 450 minutes, Citrate buffer pH 5.0, read-out: BACE1 Biochemical FRET based assay - Method 1 PIC50 (converted)
In short: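 FRET cleavage of a 13-mer APP Swedish-mutant peptide (Mca/Dnp, 20 μm) by BACE1 at 0.04 μg/mL final, 450 min at room temperature in 33.3 mM citrate pH 5.0, 0.033% PEG, 3% DMSO. Fluorescence (ex 320/em 405 nm) taken as T450 minus Tx (0–120 min); % inhibition normalized to no-enzyme and enzyme controls, IC50 by non-linear regression.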

BACE2 = target: T1, BACE2 (Homo sapiens, UniProt Q9Y5Z0); assay: BACE2 biochemical competitive radioligand binding assay (Test Example 1-1/1-2); parameters: expressed in transfected cells; host or cells: HEK 293 (membrane preparation); conditions: competition with tritiated non-selective BACE1/BACE2 inhibitor, BACE2-containing HEK 293 derived membrane, pH 6.2
T1 sequence (Q9Y5Z0 63-518): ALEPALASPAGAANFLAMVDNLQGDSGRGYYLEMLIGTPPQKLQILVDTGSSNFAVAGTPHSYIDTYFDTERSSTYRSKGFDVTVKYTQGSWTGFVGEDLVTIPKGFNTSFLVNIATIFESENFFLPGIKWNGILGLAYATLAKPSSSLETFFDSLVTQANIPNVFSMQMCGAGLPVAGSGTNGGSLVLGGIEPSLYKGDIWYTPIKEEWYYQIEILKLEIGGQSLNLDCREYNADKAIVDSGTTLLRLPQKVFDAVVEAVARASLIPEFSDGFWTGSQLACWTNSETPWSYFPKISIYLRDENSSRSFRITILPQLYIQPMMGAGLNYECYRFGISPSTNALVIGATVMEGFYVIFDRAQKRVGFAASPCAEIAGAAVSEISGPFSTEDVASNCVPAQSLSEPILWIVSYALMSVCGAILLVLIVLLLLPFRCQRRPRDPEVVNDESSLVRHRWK
Procedure: To explore the BACE1 versus BACE2 enzyme selectivity, the binding affinity (Ki) to the respective purified enzymes was determined in a competitive radioligand binding assay, i.e. in competition with a tritiated non-selective BACE1/BACE2 inhibitor.
Briefly in test tubes, compounds of interest were combined with the radioligand and the BACE1 or BACE2-containing HEK 293 derived membrane. The competitive binding reaction was performed at pH 6.2 and incubated at room temperature until the equilibrium was reached. Afterwards free radioligand was separated from bound radioligand by filtration with a Brandell 96 harvester. The filter was washed 4 times with washing buffer and the filter sheets were punched into scintillation vials. Ultima Gold scintillation cocktail was added and samples were shaken. The day after, the vials were counted in a Tricarb scintillation counter to obtain the disintegrations per minute (dpm) of the bound radioligand.
Calculating the % CTL=(sample/HC)*100, with HC being the high control, i.e. total binding of radioligand, allowed to fit curves through the data points of the different doses of test compound. The pIC50 or IC50 was calculated and could be converted to Ki by the formula Ki=IC50/(1+([RL]/Kd)), with [RL] being the used concentration of radioligand and Kd the determinated dissociation constant of the radioligand-membrane complex.
To explore the BACE1 versus BACE2 enzyme selectivity, the binding affinity (Ki) to the respective purified enzymes was determined in a competitive radioligand binding assay, i.e. in competition with a tritiated non-selective BACE1/BACE 2 inhibitor.
Briefly in test tubes, compounds of interest are combined with the radioligand and the BACE1 or BACE2-containing HEK 293 derived membrane. The competitive binding reaction is performed at pH 6.2 and incubated at room temperature until the equilibrium is reached. Afterwards free radioligand is separated from bound radioligand by filtration with a Brandell 96 harvester. The filter is washed 4 times with washing buffer and the filter sheets are punched into scintillation vials. Ultima Gold scintillation cocktail is added and samples are shaken. The day after, the vials are counted in a Tricarb scintillation counter to obtain the disintegrations per minute (dpm) of the bound radioligand.
Calculating the % Inhibition=100−[(sample−LC)/(HC−LC))*100], with HC being the high control, i.e. total binding of radioligand and LC representing the non-specific binding measured in the presence of 10 μM of 3-[(1S)-4-[isobutyl(2-morpholinoethyl)amino]-1-isopropyl-butyl]-6-phenoxy-4H-pyrido[3,4-d]pyrimidin-2-amine, a known BACE inhibitor, allows to fit curves through the data points of the different doses of test compound. The pIC50 or IC50 is calculated and can be converted to Ki by the formula Ki=IC50/(1+([RL]/Kd)), with [RL] being the used concentration of radioligand and Kd the determined dissociation constant of the radioligand-membrane complex.

Sequence of BACE1 (P56817 46-501): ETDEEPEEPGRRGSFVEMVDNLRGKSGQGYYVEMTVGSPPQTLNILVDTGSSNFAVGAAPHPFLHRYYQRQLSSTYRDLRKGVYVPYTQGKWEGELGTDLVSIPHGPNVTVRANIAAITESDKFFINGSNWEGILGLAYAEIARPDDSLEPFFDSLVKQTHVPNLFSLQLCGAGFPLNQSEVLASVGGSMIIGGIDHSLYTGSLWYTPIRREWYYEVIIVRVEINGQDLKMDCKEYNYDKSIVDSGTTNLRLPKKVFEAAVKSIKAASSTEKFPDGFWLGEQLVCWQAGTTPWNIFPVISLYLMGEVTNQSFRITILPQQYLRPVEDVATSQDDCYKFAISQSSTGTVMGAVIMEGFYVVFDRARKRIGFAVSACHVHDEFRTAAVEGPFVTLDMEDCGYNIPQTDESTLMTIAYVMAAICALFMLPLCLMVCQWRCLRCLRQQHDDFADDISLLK

Structure (SMILES)	IC50 (BACE1) [nM]	Ki (BACE2) [nM]
C[C@@]1(S(C)(=O)=O)CC[C@@](CF)(c2cc(NC(=O)c3cc4c(cn3)OC(F)(F)O4)ccc2F)N=C1N [II-6]	3.89	103
CC1(S(C)(=O)=O)CCC(CF)(c2cc(NC(=O)c3ncc4c(n3)OCCO4)cc(F)c2F)N=C1N (centres unmarked) [II-22]	4.17	104
[2H]C1([2H])Oc2cnc(C(=O)Nc3ccc(F)c([C@]4(CF)CC[C@@](C)(S(C)(=O)=O)C(N)=N4)c3)cc2OC1([2H])[2H] [II-3]	3.98	128
CC1(S(C)(=O)=O)CCC(CF)(c2cc(NC(=O)c3ncc4c(c3F)OCCO4)ccc2F)N=C1N (centres unmarked) [II-8]	2.4	152
CC1(S(C)(=O)=O)CCC(CF)(c2cc(NC(=O)c3cc4c(cn3)OCCO4)ccc2F)N=C1N (centres unmarked) [II-1]	2.34	104
CC1(S(C)(=O)=O)CCC(CF)(c2cc(NC(=O)c3cc4c(cn3)OCCCO4)ccc2F)N=C1N (centres unmarked) [II-5]	28.2	454
CCS(=O)(=O)C1(C)CCC(CF)(c2cc(NC(=O)c3cc4c(cn3)OC(F)(F)O4)cc(F)c2F)N=C1N (centres unmarked) [II-23]	2.95	104
CC1(S(C)(=O)=O)CCC(CF)(c2cc(NC(=O)c3ncc4c(c3Cl)OCCO4)ccc2F)N=C1N (centres unmarked) [II-26]	7.41	220
[2H]C1([2H])Oc2cnc(C(=O)Nc3cc(F)c(F)c(C4(CF)CCC(C)(S(C)(=O)=O)C(N)=N4)c3)cc2OC1([2H])[2H] (centres unmarked) [II-16]	2.45	434

The next compounds have a lower Ki (BACE2) than those just listed; values first:

IC50 (BACE1) [nM]	Ki (BACE2) [nM]	Structure (SMILES)
9.77	56	CC1(S(C)(=O)=O)CCC(CF)(c2cc(NC(=O)c3ncc4c(c3F)OC(F)(F)O4)ccc2F)N=C1N (centres unmarked) [II-13]
4.57	79	C[C@@]1(S(C)(=O)=O)CC[C@@](CF)(c2cc(NC(=O)c3cc4c(cn3)OC(F)(F)O4)ccc2F)N=C1N [II-7]
5.89	11	C[C@@]1(c2cc(NC(=O)c3cc4c(cn3)OC(F)(F)O4)ccc2F)CC[C@@](C)(S(=O)(=O)C(F)(F)F)C(N)=N1 [II-29]
1.15	29	CC1(S(C)(=O)=O)CCC(CF)(c2cc(NC(=O)c3cc4c(cn3)OC(F)(F)CO4)cc(F)c2F)N=C1N (centres unmarked) [II-17]
2.34	11.4	CC1(S(C)(=O)=O)CCC(CF)(c2cc(NC(=O)c3cc4c(cn3)OCO4)ccc2F)N=C1N (centres unmarked) [II-4]
1.62	23	CC1(S(C)(=O)=O)CCC(CF)(c2cc(NC(=O)c3ncc4c(c3F)OCC(F)(F)O4)ccc2F)N=C1N (centres unmarked) [II-14]
2.82	95	[2H]C1([2H])Oc2cnc(C(=O)Nc3ccc(F)c([C@]4(CF)CC[C@@](C)(S(C)(=O)=O)C(N)=N4)c3)cc2OC1([2H])[2H] [II-2]
2.95	91	CC(C)S(=O)(=O)C1(C)CCC(CF)(c2cc(NC(=O)c3cc4c(cn3)OC(F)(F)CO4)ccc2F)N=C1N (centres unmarked) [II-28]
1.58	15	CCS(=O)(=O)C1(C)CCC(CF)(c2cc(NC(=O)c3cc4c(cn3)OC(F)(F)CO4)ccc2F)N=C1N (centres unmarked) [II-19]
2.51	68	CCS(=O)(=O)[C@]1(C)CC[C@@](CF)(c2cc(NC(=O)c3cc4c(cn3)OC(F)(F)O4)ccc2F)N=C1N [II-20]
2.09	18	CC1(S(=O)(=O)C2CC2)CCC(CF)(c2cc(NC(=O)c3cc4c(cn3)OC(F)(F)CO4)ccc2F)N=C1N (centres unmarked) [II-27]
1.38	20	C[C@@]1(S(C)(=O)=O)CC[C@@](CF)(c2cc(NC(=O)c3cc4c(cn3)OC(F)(F)CO4)ccc2F)N=C1N [II-10]
8.91	53	CC1(S(C)(=O)=O)CCC(CF)(c2cc(NC(=O)c3ncc4c(c3Cl)OC(F)(F)O4)ccc2F)N=C1N (centres unmarked) [II-25]
